Laboratory results: patent publication USRE39220E1, “Peptide-mediated gene transfer” (Genetic Applications, LLC, priority 1994, dated 2006)

Experiments:
Format in all cases: cell-based
[1] = tested on: Mouse fibroblast cell line (L cells); assay: Selection of stably transfected cell lines (G418-resistant colonies); conditions: G418 400 μg/ml selection, colonies counted two weeks after start of selection, similar with hygromycin
From the text: The DNA or other polynucleotide to be transfected, such as a plasmid containing a gene for a drug resistance marker or coding a protein needed for expression in the host cell, is complexed to a synthetic polypeptide molecule in different weight ratios in an isotonic buffer solution. For example the weight ratio of DNA:polypeptide can be between 1:1 and 10:1, although ratios outside of this range may be evaluated empirically for achieving the objects of the present invention. An isotonic buffer solution such as Hanks buffered salt solution or HEPES buffered saline may be used for complexing DNA to polypeptide.
(§1) While the complex is formed, the cells that are to be transfected either remain attached to a substratum, such as a tissue culture dish, or are pelleted (for cells that grow in suspension). The cells are treated with a hypertonic primer solution, such as a concentration of 0.3M-0.6M sucrose and 10% PEG in either Tris-HCl or HEPES (pH 7.2) buffered solution, for 3-5 mins at room temperature. The primer solution then is removed.
After the DNA-polypeptide complex is formed, it is made hypotonic. […]
Transfected cells are grown in regular growth medium for 48 hours, and then plated in selective medium containing 400 μg/ml of G418. […] The number of G418-resistant colonies was determined two weeks after the initiation of selection. […]

[2] = tested on: COS cells; assay: Transient expression of β-gal reporter gene (CH110) in COS cells; conditions: DNA-polypeptide 2.5-5.0 μg, stained 48 hrs after transfection
Procedure: as §1
After the DNA-polypeptide complex is formed, it is made hypotonic. The complex solution is hypotonic when it has a lesser osmotic pressure than a 0.15M or 0.9% solution of NaCl. For example, the complex in isotonic buffer can be made […] hypotonic or 0.075M simply by adding an amount of distilled water that is equal to the volume of the complex in isotonic buffer. The hypotonic complex solution then is added to the cells that have been treated with the primer solution. Cells remain in the hypotonic DNA-polypeptide solution for 3-4 minutes. Fresh medium then is added to the cells to rinse away excess DNA-polypeptide solution. Thereafter, the cells are grown normally.
Three different cell lines were used to test the efficiency of gene transfer of the new method. Mouse fibroblast cell line (L cells), mouse erythroleukemia cell line (C19TK), and COS cells. The COS cell line was used to establish conditions for transient gene expression. […]

[3] = tested on: mouse erythroleukemia cell line, C19TK; assay: Stable transfection of hematopoietic cells in suspension, hygromycin selection (pDR2); conditions: pDR2, hygromycin selection in microtiter plates, plated 48 hours after transfection
Procedure: A mouse erythroleukemia cell line, C19TK, also was used as a representative cell line for testing the transfection efficiency of the present invention with respect to hematopoietic cells. The expression vector, pDR2, which carries a hygromycin-resistance gene, was used for these studies, C19TK cells are exquisitely sensitive for the antibiotic hygromycin.
Briefly, about million cells are spun down and the cell pellet is treated with primer. The cells are then exposed to DNA-polypeptide complex under hypotonic condition. Forty-eight hours after transfection, a known number of cells are plated in microtiter plates with hygromycin. The number of wells with growing population of cells was enumerated to determine the transfection efficiency. The stable transfection efficiency was about 1-5%, as compared to most of the other non-virus-based methods that are very poor. Thus, the method described herein is very efficient for stable transfection efficiency both for hematopoietic and non hematopoietic cell lines. […] See Gilboa, et al. (1986), Miller, et al. (1986), Stuhlmann, et al. (1989), Miller, et al. (1989), and Zwiebel, et al. (1989), each cited above.

## PKKKRKVSGGGGGKKKKKKKKKKKK [Peptide-Mediated Gene Transfer, synthetic polypeptide (NLS peptide, neutral hinge, polylysine chain) linked electrostatically to DNA, forming a polypeptide-DNA complex]
[1]
  Stable Transfection Efficiency: 5-10%
[1]; listed as DNA-polypeptide complex
  Stable Transfection Efficiency: 5-10%
[2]
  cells positive for the expression of the β-gal reporter gene: Forty to fifty
[3]
  Stable Transfection Efficiency: 1-5%
